# “And” between values parts separate entries of the source, which are not always exact repeats. Equal values may be shown once. Read-outs that look alike come from different tables or passages of the source.
# What was measured:
# [1] = tested on: CYP2A6; assay: in vitro; settings: read-out: IC50 for CYP2A6
# Method: (§1) A cocktail-approach for elucidating the metabolites profiling and CYP450 inhibition was conducted as in Lin et al. with minor changes. The incubation mixture contained 50 μL of 0.2 mg/mL of CLM, 10 μL of 0.1 M phosphate buffer (pH 7.4), 40 μL of 1 mM NADPH and six probe substrates with a total volume of 200 μL. The specific probe substrates used for each CYP450 isoenzyme in the incubation mixture were as follows: PH (CYP1A2), BP (CYP2B6), CLN (CYP2E1), TBD (CYP2C9), CAN (CYP2A6), and MDZ (CYP3A4). Probes substrates were dissolved in methanol as stock solution (1 mg/mL). All of them were diluted to the final concentrations (see Supplemental Materials) with incubation buffer and the percentage of organic solvent in the final incubation volume was below 1% (v/v). Briefly, the mixture was preincubated in a thermoshaker (Biosan, Geraardsbergen, Belgium) for 5 min at 37 °C prior to the initiation of the reaction with NADPH.4Na. After incubation, the mixture was terminated by 400 μL ice-cold acetonitrile. […] A volume of 5 µL of supernatant was analysed using UHPLC-MS/MS.
# [2] = tested on: CYP450 in chicken liver microsomes; assay: in vitro; settings: read-out: IC50 values in chicken liver microsomes (all CYP450 isoforms tested)
# Method: as §1
# [3] = parameters: species or system broiler chickens (Ross 308); settings: in vivo
# [4] = tested on: broilers; settings: in vivo
# [5] = rat, in vivo, po, cited from earlier work
# [6] = in vivo, cited from earlier work
# [7] = in vivo, po; cited from earlier work
# [8] = in vivo, 5 mg/kg; cited from earlier work
# [9] = tested on: chicken liver microsomes (CYP450); assay: in vitro
# Method: as §1, with “The incubation mixture contained 50 μL of 0.2 mg/mL of CLM, 10 μL of 0.1 M phosphate buffer (pH 7.4), 40 μL of 1 mM NADPH and six probe substrates with a total volume of 200 μL. The specific probe substrates used for each CYP450 isoenzyme in the incubation mixture were as follows: PH (CYP1A2), BP (CYP2B6), CLN (CYP2E1), TBD (CYP2C9), CAN (CYP2A6), and MDZ (CYP3A4).” left out
# (§2) Enzyme kinetic studies were conducted for the six CYP450-related probes reactions. For each probe, the maximum rate of the Vmax and Km were obtained using GraphPad Prism v.8.0.2 software via Michaelis-Menten Kinetic model (La Jolla, CA, USA). The incubation times of 5, 10, 15, 30, 45 and 60 min were tested individually. A series of protein concentrations (0.05, 0.1, 0.2, 0.4, 0.6, 0.8 and 1 mg/mL) of CLM in the incubation mixture were conducted. Triplicate analyses were performed for each incubation system.
# [10] = tested on: CYP1A2 (PH), CYP2B6 (BP), CYP2E1 (CLN), CYP2C9 (TBD), CYP2A6 (CAN), CYP3A4 (MDZ); assay: in vitro; settings: chicken, pH 7.4
# Method: as §1, with “The incubation mixture contained 50 μL of 0.2 mg/mL of CLM, 10 μL of 0.1 M phosphate buffer (pH 7.4), 40 μL of 1 mM NADPH and six probe substrates with a total volume of 200 μL. The specific probe substrates used for each CYP450 isoenzyme in the incubation mixture were as follows: PH (CYP1A2), BP (CYP2B6), CLN (CYP2E1), TBD (CYP2C9), CAN (CYP2A6), and MDZ (CYP3A4).” left out
# as §2
# [11] = tested on: CYP2A6; settings: read-out: Km of CYP2A6; turkey; CAN as substrate; cited from earlier work
# [12] = tested on: CYP1A2, CYP3A4; settings: cited from earlier work
smiles,measurement,setting,value
"COc1cc2c(c3oc(=O)c4c(c13)CCC4=O)[C@@H]1C=CO[C@@H]1O2 [AFB1, aflatoxin B1]",IC50,[1],24.1 µM
same,IC50,[2],> 7.6 µM
same,"AUCINF_obs, Control",[3],94.2 ± 40.4 ** h·ng/mL
same,"AUCINF_obs, Treatment",[3],265.8 ± 222.9 ng·h/mL
same,"AUClast, Control",[3],87.5 ± 39.6 ** h·ng/mL
same,"AUClast, Treatment",[3],170 ± 103.6 ng·h/mL
same,"CL_F_obs, Control",[3],238 ± 112 mL/min/kg
same,"CL_F_obs, Treatment",[3],157 ± 108 mL/min/kg
same,"Cmax, Control",[3],29.3 ± 3.2 ng/mL
same,"MRTlast, Control",[3],4.7 ± 0.7 h
same,"MRTlast, Treatment",[3],6.4 ± 3.2 h
same,"T1/2λz, Treatment",[3],1.4 ± 0.5 h
same,"Tmax, Treatment",[3],0.3 ± 0.1 h
same,"Vd_F_obs, Control",[3],14.8 ± 4.8 L/kg
same,"Vd_F_obs, Treatment",[3],18.4 ± 7.7 L/kg
same,increase of AUClast of AFB1 by TIA,[3],194%
same,increase of mean residence time (MRT) of AFB1 by TIA,[3],136%
same,adverse health effects in broilers,[4],No significant adverse health effects
same,AUC0–24,[5]; 1 mg/kg,45.59 ± 17.19 ng·h/mL
same,CL,[5]; 1 mg/kg,372.2 ± 163 mL/min/kg
same,Cmax,[5]; 1 mg/kg,93.42 ± 23.01 ng/mL and 90 ± 20 ng/mL
same,Tmax,[5]; 1 mg/kg,about 0.15 h
same,Vd,[5]; 1 mg/kg,226.46 ± 100.76 L/kg
same,T1/2e,[5],7.62 h
same,AUC0–t,[6]; human,0.0256 ± 0.0063 ng·h/mL
same,T1/2β,[6]; human,64.4 h
same,Tmax,[6]; human,1.02 ± 0.31 h
same,T1/2α,[6],2.86 h
same,Cmax,[7],3.8 ± 0.9 ng/mL
same,MRT,[7],11.73 ± 0.94 h
same,T1/2e,[7],15.52 ± 0.51 h
same,Tmax,[7],0.58 ± 0.17 h
same,"time for depletion in chicken liver, kidney, and muscle",[8],10 to 19 days
CCCCNC(=O)NS(=O)(=O)c1ccc(C)cc1 [Tolbutamide],Vmax,[9],159.4 nmol/min/mg
O=c1ccc2ccccc2o1 [Coumarin],Km,[10]; broiler,56.1 µM
same,Km,[10],56.1 µM
same,Vmax,"[9]; chicken liver microsomes, Michaelis-Menten, PH (CYP1A2), BP (CYP2B6), CLN (CYP2E1), TBD (CYP2C9), CAN (CYP2A6), MDZ (CYP3A4), n = 3",190.8 nmol/min/mg
same,Km,[11],33.6 ± 8.52 µM
Cc1ncc2n1-c1ccc(Cl)cc1C(c1ccccc1F)=NC2 [Midazolam],Km,[10]; broiler,3.3 µM
same,Km,[10],3.31 µM
same,Vmax,[9],37.7 nmol/min/mg
CCOc1ccc(NC(C)=O)cc1 [Phenacetin],Km,[10]; broiler,20.7 µM
same,Km,[10],20.7 µM
same,Vmax,[9],63.1 nmol/min/mg
same,Km,[12],98.1 ± 18.6 µM
